Patent publication US20030093842A1, “Resistance marker for monocotyledons” (Biogemma UK Limited, priority 1997, published 2003)

Test system: immature embryos of NB1
Experiment: Asulam kill curve: production of embryogenic callus by immature embryos on Asulam-supplemented W3 medium
Format: cell-based, wheat
Details: scored after 6 weeks
Description: The tissue culture protocol was essentially as the method of Weeks et al (Plant Physiol., 102:1077-1084 (1993)). Donor plants of the South American spring wheat line designated NB1, obtained from Nickerson Seeds Limited, were grown in a glasshouse under controlled conditions. Immature ears were harvested at 14-20 days post anthesis, and the immature caryopses were removed from the ear and dehusked using forceps. Caryopses were surface-sterilised with 70% ethanol for 2 minutes and 20% Domestos™ (Lever, UK) for 20-30 minutes and then washed with sterile distilled water. Immature embryos were isolated aseptically under a stereo dissecting microscope and placed scutella uppermost on W3 medium (MS supplemented with 20 g/l sucrose and 2 mg/l 2,4-D and solidified with 6 g/l Type I agarose [Sigma, Poole, UK]). Cultures were maintained at 25° C. with a 16 h photoperiod for 5 days prior to bombardment. Immature embryos were isolated as described for example 1, plated onto W3 medium and maintained in the dark. After 5-7 days embryos were transferred to W3 medium supplemented with Asulam (Rhone-Poulenc Agrochemicals, Ongar, UK) at a range of concentrations between 0 and 5 mg/l and maintained at 25° C. with a 16 h photo period. Embryos and embryo-derived embryogenic calli were transferred to fresh selective medium every 2 weeks. The calli were scored for embryogenic response after 6 weeks.

## COC(=O)NS(=O)(=O)c1ccc(N)cc1 [Asulam]
Asulam 0.1 mg/l in W3 medium, (no. embryos with embryogenic callus/total no. embryos plated) × 100
  Embryogenic response (%): 100%
Asulam 0.25 mg/l in W3 medium
  Embryogenic response (%): 64%
Asulam 0.5 mg/l in W3 medium
  Embryogenic response (%): 28%
Asulam 1 mg/l in W3 medium
  Embryogenic response (%): 0%
Asulam 2 mg/l in W3 medium
  Embryogenic response (%): 0%
Asulam 3 mg/l in W3 medium
  Embryogenic response (%): 0%
Asulam 4 mg/l in W3 medium
  Embryogenic response (%): 0%
Asulam 5 mg/l in W3 medium
  Embryogenic response (%): 0%
